Measurements from US11192869B2, “CFTR regulators and methods of use thereof” (THE REGENTS OF THE UNIVERSITY OF CALIFORNIA, priority 2015, dated 2021).
Entries after “also recorded” stand apart in the source; their conditions may differ.

Legend:
cAMP = cAMP GloSensor luminescence assay in FRT cells; format: cell-based, rat; conditions: 5 μM, 10 min
Procedure: cAMP assay. Intracellular cAMP activity was measured using a GloSensor luminescence assay (Promega Corp., Madison, Wisconson, USA). FRT null cells were stably transfected with the pGloSensor cAMP plasmid and plated onto white 96-well microplates and grown to confluence. Cells were washed three times with PBS and incubated with 5 μM CFTRact-J027 for 10 min in the absence and presence of 100 nM forskolin. cAMP was assayed according to the manufacturer's instructions.
(§1) cAMP and cytotoxicity assays. Intracellular cAMP activity was measured using a GloSensor luminescence assay (Promega Corp., Madison, Wis., USA). FRT cells stably transfected with the pGloSensor cAMP plasmid (Promega Corp.) were cultured in white 96-well microplates (Corning Costar) overnight. Cells were then washed three times with PBS and incubated with 5 μM test compound for 10 min in the absence and presence of 100 nM forskolin.

[1] = In vitro metabolic stability; format: in vitro ADME, mouse
Procedure: In vitro metabolic stability. CFTRact-J027 (5 μM) was incubated for specified times at 37° C. with mouse liver microsomes (1 mg protein/ml; Sigma-Aldrich) in potassium phosphate buffer (100 mM) containing 1 mM NADPH, as described. The mixture was then chilled on ice, and 0.5 ml of ice-cold ethyl acetate was added. Samples were centrifuged for 15 min at 3000 rpm, the supernatant evaporated to dryness, and the residue was dissolved in 100 μL mobile phase (acetonitrile:water, 3:1) for LC/MS and assayed as described above.

FRT cells = assay: Cytotoxicity, Alamar Blue assay; format: cell-based, rat; conditions: 20 μM
Procedure: (§2) Chronic administration and toxicity studies.
as §1

[2] = 7-day chronic administration toxicity study; format: in vivo, mouse
Excerpt: as §2

ocular surface = assay: Ocular surface potential difference measurements; format: in vivo, mouse; conditions: wild-type mice, 1-10 μM
Procedure: Ocular surface potential difference measurements. Open-circuit transepithelial PD were measured continuously in anesthetized mice in response to serial perfusions of different solutions over the ocular surface, as described (21). Mice were anesthetized with Avertin (2,2,2-tribromoethanol, 125 mg/kg intraperitoneal, Sigma-Aldrich, St. Louis, Mo., USA), and core temperature was maintained at 37° C. using a heating pad. Eyes were oriented with the cornea and conjunctiva facing upward and exposed by retracting the eyelid with cross-action forceps. Solutions were isosmolar (320±10 mOsM; compositions provided in ref. 21) and contained 10μ[…] □ indomethacin to prevent CFTR activation by prostaglandins. The ocular surface was perfused at 6 mL/min through plastic tubing using a multireservoir gravity pinch-valve system (ALA Scientific, Westbury, N.Y., USA) and variable-flow peristaltic pump (medium flow model; Fisher Scientific, Fair Lawn, N.J., USA). A probe catheter was fixed 1 mm above the cornea using a micropositioner and a suction cannula was positioned 3 mm from the orbit. The measuring electrode was in contact to the perfusion catheter and connected to a high-impedance voltmeter (IsoMilivolt Meter; WPI). The reference electrode was grounded via a winged 21-gauge needle filled with isosmolar saline, and inserted subcutaneously in the abdomen. Measuring and reference electrodes consisted of Ag/AgCl with 3 M KCl agar bridges.
Ocular surface potential difference measurements. Open-circuit transepithelial PD were measured continuously in anesthetized mice in response to serial perfusions of different solutions over the ocular surface, as described (21). Mice were anesthetized with Avertin (2,2,2-tribromoethanol, 125 mg/kg intraperitoneal, Sigma-Aldrich, St. Louis, Mo., USA), and core temperature was maintained at 37° C. using a heating pad. Eyes were oriented with the cornea and conjunctiva facing upward and exposed by retracting the eyelid with cross-action forceps. […]

Nc1ccc([N+](=O)[O-])cc1-c1nc2ccccc2n(Cc2ccccc2)c1=O [CFTRact-J027, 3-(2-amino-5-nitrophenyl)-1-benzylquinoxalin-2(1H)-one]
cellular cAMP elevation, compound alone (cAMP): without causing elevation of cytoplasmic cAMP; also recorded: does not elevate cellular cAMP | cAMP when added together with forskolin (cAMP; forskolin 100 nM): does not further increase cAMP | original compound remaining ([1]; 60 min): 7% | hepatic/microsomal metabolism (in words) ([1]; liver microsomes): rapid in vitro metabolism; also recorded: rapid hepatic metabolism | elimination half-life ([1]; mouse liver microsomes, NADPH, 5 μM): ~21 min | cytotoxicity (FRT cells): did not show cytotoxicity | in vivo toxicity after chronic administration ([2]; 7-day study, 10 mg/kg oral, 10 mg/kg): did not show significant; also recorded: without apparent toxicity | major serum chemistry and blood parameters ([2]; 7-day treated mice): did not affect | change in ocular surface PD (in words) (ocular surface): large hyperpolarizations
